Laboratory results: patent publication US8153694B2, “Cyclopropanecarboxylic acid compound” (Takeda Pharmaceutical Company Limited, priority 2005, dated 2012)
Where a name gives a salt, the structure may show the parent alone.

Target: T1, human GPR40 (Homo sapiens, UniProt O14842)
T1 construct: expressed in transfected cells; host or cells: CHO cell line stably expressing human GPR40
Test: Receptor function modulating action (agonist action) against human-derived GPR40: intracellular calcium change by FLIPR in CHO cells stably expressing human GPR40
Assay type: cell-based
Experimental: Receptor Function Modulating Action (Agonist Action) against Human-Derived GPR40 For determination of agonist activity, CHO cell line that stably expressed human GPR40 was used. […] The cells cultured to nearly confluent were rinsed with PBS (Invitrogen) on the previous day of the assay, peeled off with EDTA ([…], Wako Junyaku) and recovered by centrifugation. The number of the obtained cells was counted, and the cells were diluted such that 3×10^5 cells were contained per 1 mL of the medium, dispensed to a 96 well black clear bottom plate (coaster) by 100 μL per well and cultured overnight in a CO2 incubator. Various test compounds were added to the CHO cells thus prepared, and the changes in the intracellular calcium concentration were measured using FLIPR (Molecular Device). The below-mentioned pre-treatment was applied to measure changes in the intracellular calcium concentration by FLIPR. […] A fluorescence dye solution was prepared by adding 500 μM probenecid dissolved in 1N NaOH to the assay buffer to a final concentration of […], and adding the solution (10 mL) to 1 vial of component A (Molecular Device). One day before the assay, the medium of CHO cells re-plated on a 96 well black clear bottom plate was removed, and the cells were washed with D-PBS(−). […] Then, the fluorescence dye solution was dispensed by 100 μL per well, and the cells were cultured in a CO2 incubator for 1 hr to allow uptake of the fluorescence dye by the cells. During this period, the test compound was diluted to a given concentration with the assay buffer, and dispensed to a polypropylene 96-well plate (sample plate) by 100 μL. The cell plate and the sample plate were simultaneously set on FLIPR. After the above-mentioned pre-treatment, variation in the intracellular calcium concentration after addition of various test compounds (50 μL) was measured by FLIPR.

[1] = agonist activity of each compound at 1 μM, relative to the activity of 10 μM γ-linolenic acid as 100%, CHO cell line stably expressing human GPR40

T1 sequence (O14842 whole entry): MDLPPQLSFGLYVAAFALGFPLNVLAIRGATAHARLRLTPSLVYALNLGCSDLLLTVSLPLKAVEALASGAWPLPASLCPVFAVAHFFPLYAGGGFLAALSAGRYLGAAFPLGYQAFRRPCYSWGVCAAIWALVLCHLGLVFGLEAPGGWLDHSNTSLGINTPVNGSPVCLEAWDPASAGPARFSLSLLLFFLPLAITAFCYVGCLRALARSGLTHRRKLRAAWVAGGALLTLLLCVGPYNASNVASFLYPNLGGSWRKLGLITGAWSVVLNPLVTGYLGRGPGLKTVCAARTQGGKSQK

| Compound | Relative activity value [1] [%] | also measured |
| --- | --- | --- |
| CCOCCOc1cc(C)c(-c2cccc(COc3ccc(C4CC4C(=O)O)cc3)c2)c(C)c1 (centres unmarked) [Example 2, 2-(4-{[4′-(2-ethoxyethoxy)-2′,6′-dimethylbiphenyl-3-yl]methoxy}phenyl)cyclopropanecarboxylic acid] | 111 |  |
| CCOCCOc1cc(C)c(-c2cccc(COc3ccc(C4CC4C(=O)O)cc3)c2)c(C)c1 (centres unmarked) [Example 3, 2-(4-{[4′-(2-ethoxyethoxy)-2′,6′-dimethylbiphenyl-3-yl]methoxy}phenyl)cyclopropanecarboxylic acid calcium salt] |  | Relative activity value (agonist activity of each compound at 1 μM, relative to the activity of 10 μM γ-linolenic acid as 100%, CHO cell line stably expressing human GPR40, calcium salt): 103% |
| CC(C)CCN(Cc1ccc(COc2ccc(C3CC3C(=O)O)cc2)cc1)c1nc(-c2ccc(C(F)(F)F)cc2)cs1 (centres unmarked) [Example 9] | 99 |  |
| CCCN(Cc1ccc(COc2ccc(C3CC3C(=O)O)cc2)cc1)c1nc(-c2ccc(C(F)(F)F)cc2)cs1 (centres unmarked) [Example 11, 2-[4-({4-[(propyl{4-[4-(trifluoromethyl)phenyl]-1,3-thiazol^-2-yl}amino)methyl]benzyl}oxy)phenyl]cyclopropanecarboxylic acid] | 114 |  |
| CCCCC/C=C\C/C=C\C/C=C\CCCCC(=O)O [γ-linolenic acid, reference compound] |  | Relative activity value (reference: activity of 10 μM γ-linolenic acid (GPR40 agonist) set as 100%, CHO cell line stably expressing human GPR40): 100% |

Further lines, with some results ahead:

| Relative activity value [1] [%] | Compound | also measured |
| --- | --- | --- |
| 108 | Cc1cc(OC2CCS(=O)(=O)CC2)cc(C)c1-c1cccc(COc2ccc(C3CC3C(=O)O)cc2)c1 (centres unmarked) [Example 5, 2-[4-({4′-[(1,1-dioxidotetrahydro-2H-thiopyran-4-yl)oxy]-2′,6′-dimethylbiphenyl-3-yl}methoxy)phenyl]cyclopropanecarboxylic acid] |  |
| 119 | Cc1cc(OCC2(C)COC2)cc(C)c1-c1cccc(COc2ccc(C3CC3C(=O)O)cc2)c1 (centres unmarked) [Example 7, 2-[4-({2′,6′-dimethyl-4′-[(3-methyloxetan-3-yl)methoxy]biphenyl-3-yl}methoxy)phenyl]cyclopropanecarboxylic acid] |  |
| 109 | O=C(O)C1CC1c1ccc(OCc2cccc(Oc3ccccc3)c2)cc1 (centres unmarked) [Example 13, 2-{4-[(3-phenoxybenzyl)oxy]phenyl)cyclopropanecarboxylic acid] |  |
